The text below walks through data of ChEMBL document CHEMBL3588777, “Acetate-Derived Metabolites from the Brown Alga Lobophora variegata” (2015).

Values after ≈ are worked out from the molar mass of the structure shown.

A word on the inhibition: it is the change of the read-out against control, counted positive when it falls.

The test system of assay [1] is Enterococcus faecalis. As to the kind of experiment: Antibacterial activity against Enterococcus faecalis ATCC 29212 assessed as inhibition of bacterial growth at 100 ug/mL incubated at 37 degC for 24 hrs by broth microdilution assay. The assay is classed as functional. As to conditions: ATCC 29212, 24 h. In general terms: Dilution methods test growth across graded concentrations, often in twofold steps.

Assay [2] relates to Escherichia coli. The assay can be described thus: Antibacterial activity against Escherichia coli ATCC 25922 assessed as inhibition of bacterial growth at 100 ug/mL incubated at 37 degC for 24 hrs by broth microdilution assay. The assay is classed as functional. As to conditions: ATCC 25922, 24 h.
For assay [3], the system named is Staphylococcus aureus. As to the kind of experiment: Antibacterial activity against Staphylococcus aureus ATCC 25923 assessed as inhibition of bacterial growth at 100 ug/mL incubated at 37 degC for 24 hrs by broth microdilution assay. The assay is classed as functional. As to conditions: ATCC 25923, 24 h.
Assay [4] has as its system Staphylococcus aureus. As to the kind of experiment: Antibacterial activity against Staphylococcus aureus ATCC 25923 assessed as inhibition of bacterial growth incubated at 37 degC for 24 hrs by broth microdilution assay. The assay is classed as functional. The following applies: ATCC 25923, 24 h.
Assay [5] deals with Escherichia coli. The assay can be described thus: microbe, parasite or virus in culture. The following applies: ATCC 25922, 24 h.
Description: Antibacterial activity against Escherichia coli ATCC 25922 assessed as inhibition of bacterial growth incubated at 37 degC for 24 hrs by broth microdilution assay
The subject of assay [6] is Enterococcus faecalis. As to the kind of experiment: microbe, parasite or virus in culture. As to conditions: ATCC 29212, 24 h.
Description: Antibacterial activity against Enterococcus faecalis ATCC 29212 assessed as inhibition of bacterial growth incubated at 37 degC for 24 hrs by broth microdilution assay

As to `CCCCCCCCCCCC1=C(C(C)=O)C(=O)C[C@@H](O)C1`, the inhibition at 100 µg/mL was 23% with Enterococcus faecalis [1], 29% with Escherichia coli [2] and 100% in the assay on Staphylococcus aureus [3]. In addition, in the assay with Staphylococcus aureus [4], the MIC90 amounted to 25 µg/mL (≈ 81 µM).

As for `CCCCCCCCCCCc1cccc(O)c1C(C)=O`, the inhibition at 100 µg/mL in the assay on Enterococcus faecalis [1] is -1%; with Escherichia coli [2], -3.3%; with Staphylococcus aureus [3], 65%.

Turning to `CCCCCCCCCCCc1cc(O)cc(O)c1C(C)=O`, the inhibition at 100 µg/mL in the assay with Enterococcus faecalis [1] was -9.8%; in the assay with Escherichia coli [2], -1%; in the assay with Staphylococcus aureus [3], 17%.

As for `CCCCCCCCCCC[C@H](O)C[C@H]1CC(=O)C=C(C)O1`, the inhibition at 100 µg/mL in the assay with Enterococcus faecalis [1] is 23%; in the assay with Escherichia coli [2] it was 27%; with Staphylococcus aureus [3], -8.5%.

`CCCCCCCCCCCC1CC=C/C(=C\C(C)=O)O1` (stereo not given): the results for the inhibition at 100 µg/mL in the assay on Enterococcus faecalis [1], with Escherichia coli [2] and with Staphylococcus aureus [3] were 21%, 15% and -95%, respectively.

With `CCCCCCCCCCCC1CC=C/C(=C/C(C)=O)O1` (stereo not given), the inhibition at 100 µg/mL is 19% in the assay on Enterococcus faecalis [1], 25% with Escherichia coli [2] and -57% in the assay with Staphylococcus aureus [3].

Regarding `CCCCC/C=C\C/C=C\CCCCCCCC(=O)/C=C(/C)O`, the inhibition at 100 µg/mL in the assay on Enterococcus faecalis [1] is -10%; in the assay with Escherichia coli [2] it was -2.4%; in the assay with Staphylococcus aureus [3] it was -17%.

With `O=C(O)c1cn(C2CC2)c2cc(N3CCNCC3)c(F)cc2c1=O` [CIPROFLOXACIN], the MIC90 in the assay with Staphylococcus aureus [4] amounted to 0.5 µg/mL (≈ 1.51 µM); in the assay on Escherichia coli [5], 0.016 µg/mL (≈ 0.0483 µM); in the assay on Enterococcus faecalis [6], 1 µg/mL (≈ 3.02 µM).
